The record followed here is patent US6696293B2, “Process for producing carotenoids and biological materials useful therefor” (Roche Vitamins Inc., priority 2000, dated 2004).

The subject of the assay is P. rhodozyma ATCC 96594. The assay is described as follows: Growth of P. rhodozyma colonies on SHAM-containing YPD-agar. The assay is classed as cell-based, Phaffia rhodozyma. As to conditions: 3 day-cultivation at 20° C.; for Relative colony diameter (%): relative to control colonies without SHAM. How it is done: To examine the effects of the inhibition of KCN-resistant respiration mediated by alternative oxidase on the growth of P. rhodozyma, SHAM was added to a culture of P. rhodozyma on YPD-agar medium. SHAM was dissolved in ethanol and added to the YPD-agar medium to give 0.05, 0.15, 0.30, 0.45 and 0.90 mg/ml as a final concentration. After dilution, 2×10^7 cells/ml of P. rhodozyma ATCC 96594 were spread on the media. After a 3 day-cultivation at 20° C., colonies were counted. […] However, the colonies that grew on SHAM-containing media were smaller than the colonies that grew on the control media.

Molecules are shown by their SMILES.

On to `O=C(NO)c1ccccc1O` [SHAM, Salicylhydroxamic acid], for which the “Relative colony diameter (%)” value (SHAM 0.05 mg/ml in YPD-agar) stood at 100%; the “Relative colony diameter (%)” value (SHAM 0.15 mg/ml in YPD-agar) is 70%; the “Relative colony diameter (%)” value (SHAM 0.30 mg/ml in YPD-agar) is reported as 40%; the “Relative colony diameter (%)” value (SHAM 0.45 mg/ml in YPD-agar) is listed as 30%; the “Relative colony diameter (%)” value (SHAM 0.90 mg/ml in YPD-agar) came out at 12%. For the same compound, under “SHAM 0.05-0.90 mg/ml, compared with control medium without SHAM”, the “Number of colonies that grew on SHAM-containing YPD agar” value was “almost the same as that on control medium”.
